Measurements as given in US7897567B2, “Methods of protecting against radiation damage using alpha thymosin” (SciClone Pharmaceuticals, Inc., priority 2002, dated 2011).
Ends that are not written are not given here.

Tests used:
[1] = test system: clonogenic cells of the small intestine (crypts); experiment: Small intestine crypt survival after 13Gy X-irradiation in BDF1 mice; type: in vivo
Text: Radiation exposure may damage or kill cells. Therefore, stem and clonogenic cells of the small intestine were exposed to radiation, treated and monitored to observe the effectiveness of the treatment. There are thought to be between four and sixteen actual stem cells in each crypt of the small intestine. There are also a further reserve of clonogneic cells which are capable of regenerating the crypt when all the actual stem cells have been killed. The survival of these clonogenic cells is therefore key to the survival of the crypt and the restoration of an intact epithelial lining following cytotoxic injury (only one clonogenic cell need survive to ensure the survival of the crypt, and therefore maintenance of an intact epithelium). Growth factors and related molecules can be used to manipulate the sensitivity of these cells to cytotoxic agents, and thereby reduce the severity of gastrointestinal and oral mucositis. Factors given prior to a cytotoxic insult may increase clonogenic cell number (thereby increasing the probability of clonogen survival) or act to arrest the cell cycle in such cells (thereby making them more resistant to damage or death). […] A combination of both protocols could give maximum protection to the epithelium.
36 adult male BDF1 mice (aged 10-12 weeks) were used. The animals were divided into 6 groups and were treated as follows: (1) Control mice, (2) Irradiated, untreated mice, (3) Mice receiving 3 mg/kg thymosin ip 3 hrs prior to irradiation, (4) Mice receiving vehicle ip 3 hrs prior to irradiation, (5) Mice receiving 3 mg/kg thymosin ip 3 times daily for 3 days prior to irradiation, (6) Mice receiving vehicle ip 3 times daily for 3 days prior to irradiation.
The injections were given at 9:00 (3 times treatment) or 12:00 (1 time treatment). At 3:00 on day 3, intestinal damage was induced using a single dose of 13Gy (Gray) X-irradiation.
4 days after irradiation the animals were culled. The small intestine was removed and fixed in Carnoy's fixative prior to processing for histological analysis. 3 um sections were cut and stained with haematoxylin and eosin. Surviving crypts with one or more clonogenic cells are clearly visible in the irradiated sections. […]
For each animal ten intestinal circumferences were analyzed (60 per group). […] The number of surviving crypts per circumference were scored and the average per group determined. Only crypts containing 10 or more strongly H&E stained cells (excluding Paneth cells) and only intact circumference not containing Peyers patches were scored (Peyers patches influence both the number of crypts in a normal circumference and the ability of a crypt to survive insult).
The average crypt width (measured at its widest point) was also measured in order to correct for scoring errors due to crypt size difference. […]

[2] = subcutaneously injected; cited from earlier work

Substance: Thymosin alpha 1 (SDAAVDTSSEITTKDLKEKKEVVEEAEN; not fully specified (N-terminus); UniProt P06454 2-29, looked up) [28-amino acid thymic peptide with immunomodulatory properties, homologous to a natural product isolated from thymosin fraction 5 of calf thymus]
- survival of treatment and adverse effects ([1]; 3 mg/kg ip, single or triple dose, BDF1 mice, 13Gy X-irradiation): no obvious adverse effects
- increase in surviving crypts ([1]; triple dose thymosin vs triple dose vehicle control): 77%
- protection factor ([1]; triple dose thymosin vs triple dose vehicle control (5.3 vs 3)): 1.77
- corrected crypt survival (corrected number of crypts/circumference) ([1]; triple dose: 3 mg/kg ip 3 times daily for 3 days prior to 13Gy X-irradiation, BDF1 mice, 4 days after irradiation): 5.3 crypts/circumference
- plasma half-life [2]: about two
